Laboratory results taken from patent US10183919B2 (priority 2014, dated 2019).

Molecular target: T1, Human MOR (Homo sapiens, UniProt P35372)
T1 construct: expressed in transfected cells; host or cells: HEK-293T
Experiment: cell-based
Details: not given
Description: (§1) Transfection. Human or mouse MOR cDNA was transfected alongside GαoB with RLuc8 inserted at position 91 (GαoB-RLuc8), Gβ1 (β1), and Gγ2 fused to the full-length mVenus at its N terminus (mVenus-γ2) into HEK-293T cells (5×10^6 cells/plate) in 10-cm dishes using PEI (Polysciences Inc.; Warrington, Pa.) in a 1:1 ratio diluted in Opti-MEM (Life Technologies Corp.; Grand Island, N.Y.) to assay for G protein activation as described previously (Rives, M.-L. et al. J. Biol. Chem. 2012, 287, 27050-4; Negri, A.; Rives, M.-L.; Caspers, M. J. et al. J. Chem. Inf. Model. 2013, 53, 521-526). Cells were maintained in the Dulbecco's Modified Eagle Medium (high glucose #11965; Life Technologies) supplemented with 10% FBS (Premium Select, Atlanta Biologicals; Atlanta, Ga.) and 100 U/mL penicillin and 100 μg/mL streptomycin (#15140, Life Technologies). After 24 hours the media was changed, and the experiment was performed 24 hours later (48 hours after transfection).
(§2) BRET. Transfected cells were dissociated and resuspended in phosphate-buffered saline (PBS). Approximately 200,000 cells/well were added to a black-framed, white well 96-well plate (#60050; Perkin Elmer; Waltham, Mass.). The microplate was centrifuged and the cells were resuspended in PBS. Then 5 μM of the luciferase substrate coelenterazine H was added to each well for 5 minutes. Following coelenterazine H addition, ligands were added and the BRET signal was measured at 5 minutes on a PHERAstar FS plate reader. Quantification of the BRET signal required calculating the ratio of the light emitted by the energy acceptor, mVenus (510-540 nm), over the light emitted by the energy donor, RLuc8 (485 nm). […] Dose response curves were fit using three-parameter logistics equation in GraphPad Prism 6.

T1 sequence (P35372 whole entry): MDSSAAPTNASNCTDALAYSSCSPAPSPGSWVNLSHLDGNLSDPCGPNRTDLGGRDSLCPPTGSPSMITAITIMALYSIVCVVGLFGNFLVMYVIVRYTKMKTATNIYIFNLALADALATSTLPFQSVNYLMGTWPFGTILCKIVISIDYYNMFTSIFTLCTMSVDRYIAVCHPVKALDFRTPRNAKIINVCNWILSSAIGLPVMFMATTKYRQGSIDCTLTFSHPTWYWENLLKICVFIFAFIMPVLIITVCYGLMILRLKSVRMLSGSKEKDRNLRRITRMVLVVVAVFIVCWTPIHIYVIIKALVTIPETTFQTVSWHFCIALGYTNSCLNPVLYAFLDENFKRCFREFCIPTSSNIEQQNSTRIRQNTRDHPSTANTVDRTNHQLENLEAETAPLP

| Molecule | EC50 |
| --- | --- |
| CCOC(=O)CCCCCCNC1c2ccccc2N(C)S(=O)(=O)c2ccccc21 (stereo not drawn) [compound 9, Ethyl 7-((6-methyl-5,5-dioxido-6,11-dihydrodibenzo[c,f][1,2]thiazepin-11-yl)amino)heptanoate] | < 10 µM |
| CCOC(=O)CCCCNC1c2ccccc2N(C)S(=O)(=O)c2cc(Cl)ccc21 (stereo not drawn) [compound 17, Ethyl 5-((3-chloro-6-methyl-5,5-dioxido-6,11-dihydrodibenzo[c,f][1,2]thiazepin-11-yl)amino)pentanoate] | < 10 µM |
| COCCCNC1c2ccccc2N(C)S(=O)(=O)c2cc(SC)ccc21 (stereo not drawn) [compound 44, 11-((3-Methoxypropyl)amino)-6-methyl-3-(methylthio)-6, 11-dihydrodibenzo[c,f][1,2]thiazepine 5,5-dioxide] | < 10 µM |
| CCCNC1c2ccccc2N(C)S(=O)(=O)c2cc(Cl)ccc21 (stereo not drawn) [compound 21, 3-Chloro-6-methyl-11-(propylamino)-6,11-dihydrodibenzo [c,f][1,2]thiazepine 5,5-dioxide] | < 10 µM |
| CC(C)NC1c2ccccc2N(C)S(=O)(=O)c2cc(Cl)ccc21 (stereo not drawn) [compound 22, 3-Chloro-11-(isopropylamino)-6-methyl-6,11-dihydrodibenzo [c,f][1,2]thiazepine 5,5-dioxide] | < 10 µM |
| COCCCNC1c2ccccc2N(C)S(=O)(=O)c2cc(SC(C)C)ccc21 (stereo not drawn) [compound 63, 3-(Isopropylthio)-11-((3-methoxypropyl)amino)-6-methyl-6,11-dihydrodibenzo[c,f][1,2]thiazepine 5,5-dioxide] | < 10 µM |
| COCCCNC1c2ccccc2S(=O)(=O)N(C)c2c(OC)cccc21 (stereo not drawn) [compound 50] | < 20 µM |
| CCN1c2ccccc2C(NCCCOC)c2ccccc2S1(=O)=O (stereo not drawn) [compound 65, 6-Ethyl-11-((3-methoxpropyl)amino)-6,11-dihydrodibenzo[c,f][1,2]thiazepine 5,5-dioxide] | > 20 µM |
| COCCCCCNC1c2ccccc2N(C)S(=O)(=O)c2cc(Cl)ccc21 (stereo not drawn) [compound 32, 3-Chloro-11-((5-methoxypentyl)amino)-6-methyl-6,11-dihydrodibenzo [c,f][1,2]thiazepine 5,5-dioxide] | 0.563 ± 0.247 µM |
| CN1c2ccccc2C(NCCCC(F)(F)F)c2ccc(Cl)cc2S1(=O)=O (stereo not drawn) [compound 28, 3-Chloro-6-methyl-11-((4,4,4-trifluorobutyl)amino)-6,11-dihydrodibenzo [c,f][1,2]thiazepine 5,5-dioxide] | < 10 µM |
| COCCCNC1c2ccccc2N(C)S(=O)(=O)c2cc(OC(C)=O)ccc21 (stereo not drawn) [compound 59, 11-((3-Methoxypropyl)amino)-6-methyl-5,5-dioxido-6,11-dihydrodibenzo[c,f][1,2]thiazepin-3-yl acetate] | < 10 µM |
| COCCCCNC1c2ccccc2N(C)S(=O)(=O)c2cc(Cl)ccc21 (stereo not drawn) [compound 39, 3-Chloro-11-((4-methoxybutyl)amino)-6-methyl-6,11-dihydrodibenzo [c,f][1,2]thiazepine 5,5-dioxide] | < 10 µM |
| CC(C)OCCCNC1c2ccccc2N(C)S(=O)(=O)c2cc(Cl)ccc21 (stereo not drawn) [compound 35, 3-Chloro-11-((3-isopropoxypropyl)amino)-6-methyl-6,11-dihydrodibenzo [c,f][1,2]azepine 5,5-dioxide] | < 10 µM |
| COCCCNC1c2ccccc2N(C)S(=O)(=O)c2cc(OC)ccc21 (stereo not drawn) [compound 27, 3-Methoxy-11-((3-methoxypropyl)amino)-6-methyl-6,11-dihydrodibenzo [c,f][1,2]thiazepine 5,5-dioxide] | < 10 µM |
| COCCNC1c2ccccc2N(C)S(=O)(=O)c2cc(Cl)ccc21 (stereo not drawn) [compound 42, 3-Chloro-11-((2-methoxyethyl)amino)-6-methyl-6,11-dihydrodibenzo [c,f][1,2]thiazepine 5,5-dioxide] | < 10 µM |
| CCOC(=O)CCCCCCNC1c2ccccc2S(=O)(=O)N(C)c2ccsc21 (stereo not drawn) [compound 6, Ethyl 7-((4-methyl-5,5-dioxido-4,10-dihydrobenzo[f]thieno[3,2-c][1,2]thiazepin-10-yl)amino) heptanoate] | < 10 µM |

| Molecule | EC50 |
| --- | --- |
| COCCCNC1c2ccc(Br)cc2S(=O)(=O)N(C)c2ccsc21 (stereo not drawn) [compound 72, 7-Bromo-10-((3-methoxypropyl)amino)-4-methyl-4,10-dihydrobenzo[f]thieno[3,2-c][1,2]thiazepine 5,5-dioxide] | < 10 µM |
| CCOC(CCCNC1c2ccccc2N(C)S(=O)(=O)c2cc(Cl)ccc21)OCC (stereo not drawn) [compound 24, 3-Chloro-11-((4,4-diethoxybutyl)amino)-6-methyl-6,11-dihydrodibenzo[c,f][1,2]thiazepine 5,5-dioxide] | < 10 µM |
| CCSc1ccc2c(c1)S(=O)(=O)N(C)c1ccccc1C2NCCCOC (stereo not drawn) [compound 64, 3-(Ethylthio)-11-((3-methoxypropyl)amino)-6-methyl-6,11-dihydrodibenzo[c,f][1,2]thiazepine 5,5-dioxide] | < 10 µM |
| CN1c2ccccc2C(NCCCC2OCCCO2)c2ccc(Cl)cc2S1(=O)=O (stereo not drawn) [compound 31, 11-((3-(1,3-Dioxan-2-yl)propyl)amino)-3-chloro-6-methyl-6,11-dihydrodibenzo[c,f][1,2]thiazepine 5,5-dioxide] | < 10 µM |
| CSCCCNC1c2ccccc2N(C)S(=O)(=O)c2cc(Cl)ccc21 (stereo not drawn) [compound 33, 3-Chloro-6-methyl-11-((3-(methylthio)propyl)amino)-6,11-dihydrodibenzo[c,f][1,2]thiazepine 5,5-dioxide] | < 10 µM |
| CCOC(=O)CCCCCCNC1c2ccc(Cl)cc2S(=O)(=O)N(C)c2ccsc21 (stereo not drawn) [compound 79, Ethyl 7-((7-chloro-4-methyl-5,5-dioxido-4,10-dihydrobenzo[f]thieno[3,2-c][1,2]thiazepin-10-yl)amino)heptanoate] | < 10 µM |
| CN1c2ccccc2C(NCCCCCCC(N)=O)c2ccc(Cl)cc2S1(=O)=O (stereo not drawn) [compound 52] | < 10 µM |
| COCCCNC1c2ccccc2N(C)S(=O)(=O)c2cc(C)ccc21 (stereo not drawn) [compound 15, 11-((3-Methoxypropyl)amino)-3,6-dimethyl-6,11-dihydrodibenzo[c,f][1,2]thiazepine 5,5-dioxide] | < 10 µM |
| COCCCNC1c2ccc(Cl)cc2N(C)S(=O)(=O)c2ccccc21 (stereo not drawn) [compound 69, 8-Chloro-11-((3-methoxypropyl)amino)-6-methyl-6,11-dihydrodibenzo [c,f][1,2]thiazepine 5,5-dioxide] | < 20 µM |
| COCCCNC1c2ccccc2N(C)S(=O)(=O)c2cc(-c3ccccc3)ccc21 (stereo not drawn) [compound 56, 11-((3-Methoxypropyl)amino)-6-methyl-3-phenyl-6,11-dihydrodibenzo[c,f][1,2]thiazepine 5,5-dioxide] | < 10 µM |
| CCOC(=O)CCCCCCNC1c2ccccc2N(C)S(=O)(=O)c2cc(I)ccc21 (stereo not drawn) [compound 49, Ethyl 7-((3-iodo-6-methyl-5,5-dioxido-6,11-dihydrodibenzo[c,f][1,2]thiazepin-11-yl)amino)heptanoate] | 0.137 ± 0.017 µM |
| CCOCCCNC1c2ccc(Cl)cc2S(=O)(=O)N(C)c2ccsc21 (stereo not drawn) [compound 78, 7-Chloro-10-((-ethoxypropyl)amino)-4-methyl-4,10-dihydrobenzo[f]thieno[3,2-c][1,2]thiazepine 5,5-dioxide] | < 10 µM |
| COC(C)CCNC1c2ccccc2N(C)S(=O)(=O)c2cc(Cl)ccc21 (mixture of isomers) [compound 67, 3-Chloro-11-((3-methoxybutyl)amino)-6-methyl-6,11-dihydrodibenzo [c,f][1,2]thiazepine 5,5-dioxide] | < 10 µM |
| CCOC(=O)CCCCCCNC1c2ccccc2N(C)S(=O)(=O)c2cc(F)ccc21 (stereo not drawn) [compound 41, Ethyl 7-((3-fluoro-6-methyl-5,5-dioxido-6,11-dihydrodibenzo[c,f][1,2]thiazepin-11-yl)amino)heptanoate] | 2.04 ± 0.334 µM |
| CCOC(=O)CCCCCCNC1c2ccccc2S(=O)(=O)N(C)c2c(OC)cccc21 (stereo not drawn) [compound 51, Ethyl 7-((7-methoxy-6-methyl-5,5-dioxido-6,11-dihydrodibenzo[c,f][1,2]thiazepin-11-yl)amino)heptanoate] | < 10 µM |

Same assay, conditions: BRET G protein activation, HEK-293T; mean ± SEM of independent trials; read-out: EC50 Human MOR

| Molecule | EC50 |
| --- | --- |
| CCOC(=O)CCCCCCNC1c2ccccc2S(=O)(=O)N(C)c2c(O)cccc21 (stereo not drawn) [compound 62] | > 20 µM |
| 7-((3-Iodo-6-methyl-5,5-dioxido-6,11-dihydrodibenzo [c,f][1,2]thiazepin-11-yl)amino)heptanoic acid hydrochloride salt [compound 84] | 0.04 µM |
| CCOCCCNC1c2ccccc2N(C)S(=O)(=O)c2cc(Br)ccc21 (stereo not drawn) [compound 71, 3-Bromo-11-((3-ethoxypropyl)amino)-6-methyl-6,11-dihydrodibenzo [c,f][1,2]thiazepine 5,5-dioxide] | 0.222 ± 0.078 µM |

Molecular target: T2, Mouse MOR (Mus musculus, UniProt P42866)
T2 construct: expressed in transfected cells; host or cells: HEK-293T
T2 sequence (P42866 whole entry): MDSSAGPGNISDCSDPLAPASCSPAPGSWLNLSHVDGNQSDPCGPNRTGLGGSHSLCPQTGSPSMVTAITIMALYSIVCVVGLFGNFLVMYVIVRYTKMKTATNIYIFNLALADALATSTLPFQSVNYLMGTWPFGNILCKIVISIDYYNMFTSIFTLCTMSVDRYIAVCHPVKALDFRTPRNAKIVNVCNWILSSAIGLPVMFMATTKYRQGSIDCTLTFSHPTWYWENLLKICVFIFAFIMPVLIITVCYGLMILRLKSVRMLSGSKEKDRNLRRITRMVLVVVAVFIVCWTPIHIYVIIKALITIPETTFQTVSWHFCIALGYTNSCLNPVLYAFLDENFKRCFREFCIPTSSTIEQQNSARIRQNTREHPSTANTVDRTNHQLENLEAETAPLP
Experiment: BRET G protein activation assay, HEK-293T cells transfected with mouse MOR
Assay type: cell-based
Details: not given
Description: as §1, §2

| Molecule | EC50 |
| --- | --- |
| CCOC(=O)CCCCCCNC1c2ccccc2N(C)S(=O)(=O)c2ccccc21 (stereo not drawn) [compound 9, Ethyl 7-((6-methyl-5,5-dioxido-6,11-dihydrodibenzo[c,f][1,2]thiazepin-11-yl)amino)heptanoate] | < 10 µM |
| CCOC(=O)CCCCNC1c2ccccc2N(C)S(=O)(=O)c2cc(Cl)ccc21 (stereo not drawn) [compound 17, Ethyl 5-((3-chloro-6-methyl-5,5-dioxido-6,11-dihydrodibenzo[c,f][1,2]thiazepin-11-yl)amino)pentanoate] | < 10 µM |

Same assay, conditions: BRET G protein activation, HEK-293T; mean ± SEM of independent trials; read-out: EC50 Mouse MOR

| Molecule | EC50 |
| --- | --- |
| COCCCNC1c2ccccc2N(C)S(=O)(=O)c2cc(SC)ccc21 (stereo not drawn) [compound 44, 11-((3-Methoxypropyl)amino)-6-methyl-3-(methylthio)-6, 11-dihydrodibenzo[c,f][1,2]thiazepine 5,5-dioxide] | < 10 µM |
| CCCNC1c2ccccc2N(C)S(=O)(=O)c2cc(Cl)ccc21 (stereo not drawn) [compound 21, 3-Chloro-6-methyl-11-(propylamino)-6,11-dihydrodibenzo [c,f][1,2]thiazepine 5,5-dioxide] | < 10 µM |
| CC(C)NC1c2ccccc2N(C)S(=O)(=O)c2cc(Cl)ccc21 (stereo not drawn) [compound 22, 3-Chloro-11-(isopropylamino)-6-methyl-6,11-dihydrodibenzo [c,f][1,2]thiazepine 5,5-dioxide] | < 10 µM |
